Results on 27 compounds are retold here after patent publication US8217029B2, “Oxazolidinone antibiotics” (Actelion Pharmaceuticals Ltd, priority 2007, dated 2012).

Each structure is given as a SMILES string. Values after ≈ are worked out from the molar mass of the structure shown. A value given as a limit tells only on which side of the number the result lay.

The term MIC denotes the lowest concentration found to suppress growth. A high value points to weaker potency.

The experiment deals with S aureus A798. Kind of experiment: Minimal inhibitory concentration (MIC), microdilution method in cation-adjusted Mueller-Hinton Broth following NCCLS guidelines. The class given is cell-based. The following applies: pH of test medium 7.2-7.3. The method in brief: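 MICs (mg/l) came from NCCLS-guided microdilution, using cation-adjusted Mueller-Hinton medium adjusted to pH 7.2-7.3.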
Turning to `COc1ccc2nccc(N3CCN(C[C@H]4CN(c5ccc6c(c5)NC(=O)CS6)C(=O)O4)CC3)c2n1` [Example 39, 6-{(S)-5-[4-(6-Methoxy-[1,5]naphthyridin-4-yl)-piperazin-1-ylmethyl]-2-oxo-oxazolidin-3-yl}-4H-benzo[1,4]thiazin-3-one], the MIC is at most 0.031 µg/mL.
`COc1ccc(N2C[C@@H](CN[C@H]3CCN(c4c(F)cnc5ccc(OC)nc45)C3)OC2=O)cc1` [Example 169, (R)-5-{[(S)-1-(3-Fluoro-6-methoxy-[1,5]naphthyridin-4-yl)-pyrrolidin-3-ylamino]-methyl}-3-(4-methoxy-phenyl)-oxazolidin-2-one] gave an MIC of 0.5 µg/mL (≈ 1.07 µM).
Still for that read-out and setting: then `COc1ccc2nccc(N3CC(CN(C)C[C@H]4CN(c5ccc6c(c5)OCCO6)C(=O)O4)C3)c2n1` [Example 118, (S)-3-(2,3-Dihydro-benzo[1,4]dioxin-6-yl)-5-({[1-(6-methoxy-[1,5]naphthyridin-4-yl)-azetidin-3-ylmethyl]-methyl-amino}-methyl)-oxazolidin-2-one], with 0.25 µg/mL (≈ 0.509 µM).
For `COc1ccc2nccc(N3CCCN(C[C@@H]4CN(c5ccc(C)c(F)c5)C(=O)O4)CC3)c2n1` [Example 108, (R)-3-(3-Fluoro-4-methyl-phenyl)-5-[4-(6-methoxy-[1,5]naphthyridin-4-yl)-[1,4]diazepan-1-ylmethyl]-oxazolidin-2-one], the MIC worked out at 0.25 µg/mL (≈ 0.537 µM).
Same read-out and setting: then `COc1ccc2nccc(N3CCN(C[C@@H]4CN(c5ccc(N6CCCC6)cc5)C(=O)O4)CC3)c2n1` [Example 23, (R)-5-[4-(6-Methoxy-[1,5]naphthyridin-4-yl)-piperazin-1-ylmethyl]-3-(4-pyrrolidin-1-yl-phenyl)-oxazolidin-2-one], with 2 µg/mL (≈ 4.09 µM); and `COc1ccc2cccc(N3CC(CNC[C@@H]4CN(c5ccc6c(c5)NC(=O)CS6)C(=O)O4)C3)c2n1` [Example 162, 6-[(R)-5-({[1-(2-Methoxy-quinolin-8-yl)-azetidin-3-ylmethyl]-amino}-methyl)-2-oxo-oxazolidin-3-yl]-4H-benzo[1,4]thiazin-3-one], with at most 0.031 µg/mL; and `O=C1O[C@H](CN2CCN(c3ccnc4ccccc34)CC2)CN1c1ccc2c(c1)OCCO2` [Example 99, (R)-3-(2,3-Dihydro-benzo[1,4]dioxin-6-yl)-5-(4-quinolin-4-yl-piperazin-1-ylmethyl)-oxazolidin-2-one], with at most 0.031 µg/mL.
`COc1ccc2nccc(N3C[C@@H](O)[C@H](NC[C@@H]4CN(c5ccc6c(c5)NC(=O)CS6)C(=O)O4)C3)c2n1` (relative stereo) [Example 76, 6-((R)-5-{[(3R*,4R*)-4-Hydroxy-1-(6-methoxy-[1,5]naphthyridin-4-yl)-pyrrolidin-3-ylamino]-methyl}-2-oxo-oxazolidin-3-yl)-4H-benzo[1,4]thiazin-3-one] showed an MIC of at most 0.031 µg/mL.
Same read-out and setting: the value for `COc1ccc2nccc(C3(O)CCN(CC4CN(c5ccc6c(c5)OCCO6)C(=O)O4)CC3)c2n1` (racemic) [Example 3, (RS)-3-(2,3-Dihydro-benzo[1,4]dioxin-6-yl)-5-[4-hydroxy-4-(6-methoxy-[1,5]naphthyridin-4-yl)-piperidin-1-ylmethyl]-oxazolidin-2-one] was at most 0.031 µg/mL; that for `COc1cnc2cccc(N3CC(CNC[C@@H]4CN(c5ccc6c(c5)NC(=O)CS6)C(=O)O4)C3)c2c1` [Example 163, 6-[(R)-5-({[1-(3-Methoxy-quinolin-5-yl)-azetidin-3-ylmethyl]-amino}-methyl)-2-oxo-oxazolidin-3-yl]-4H-benzo[1,4]thiazin-3-one] was at most 0.031 µg/mL; that for `COc1ccc2nccc(N3CCN(C[C@@H]4CN(c5ccc(F)c(C)c5)C(=O)O4)CC3)c2n1` [Example 30, (R)-3-(4-Fluoro-3-methyl-phenyl)-5-[4-(6-methoxy-[1,5]naphthyridin-4-yl)-piperazin-1-ylmethyl]-oxazolidin-2-one] was 0.125 µg/mL (≈ 0.277 µM).
The same measure, in the same setting: the value for `COc1ccc2ncc(F)c(N3CC(NC[C@@H]4CN(c5ccc6c(c5)NC(=O)CS6)C(=O)O4)C3)c2n1` [Example 48, 6-((R)-5-{[1-(3-Fluoro-6-methoxy-[1,5]naphthyridin-4-yl)-azetidin-3-ylamino]-methyl}-2-oxo-oxazolidin-3-yl)-4H-benzo[1,4]thiazin-3-one] was at most 0.031 µg/mL; that for `COc1ccc2ncnc(N3CCN(CC4CN(c5ccc6c(c5)OCCO6)C(=O)O4)CC3)c2c1` (racemic) [Example 6, (RS)-3-(2,3-Dihydro-benzo[1,4]dioxin-6-yl)-5-[4-(6-methoxy-quinazolin-4-yl)-piperazin-1-ylmethyl]-oxazolidin-2-one] was at most 0.031 µg/mL.
In the case of `COc1ccc2nccc(N3CCN(C[C@H]4CN(c5ccc(C)c(F)c5)C(=O)O4)C(=O)C3)c2n1` (single isomer, unassigned) [Example 100, [(S)-3-(3-Fluoro-4-methyl-phenyl)-2-oxo-oxazolidin-5-ylmethyl]-4-(6-methoxy-[1,5]naphthyridin-4-yl)-piperazin-2-one or [(R)-3-(3-Fluoro-4-methyl-phenyl)-2-oxo-oxazolidin-5-ylmethyl]-4-(6-methoxy-[1,5]naphthyridin-4-yl)-piperazin-2-one], the “MIC S aureus A798” value stood at 0.063 µg/mL (≈ 0.135 µM).
Compound `COc1ccc2nccc(N3CCC(CNC(=O)[C@@H]4CN(c5ccc6c(c5)OCCO6)C(=O)O4)C3)c2n1` (mixture of isomers) [Example 81, (S)-3-(2,3-Dihydro-benzo[1,4]dioxin-6-yl)-2-oxo-oxazolidine-5-carboxylic acid [(RS)-1-(6-methoxy-[1,5]naphthyridin-4-yl)-pyrrolidin-3-ylmethyl]-amide] registered an MIC of 0.125 µg/mL.
Still for that read-out and setting: the value for `COc1ccc2nccc(N3CC(N(C)C[C@@H]4CN(c5ccc6scnc6c5)C(=O)O4)C3)c2n1` [Example 146, (R)-3-Benzothiazol-5-yl-5-({[1-(6-methoxy-[1,5]naphthyridin-4-yl)-azetidin-3-yl]-methyl-amino}-methyl)-oxazolidin-2-one] was 0.063 µg/mL (≈ 0.132 µM); that for `COc1ccc2nccc(N3C[C@H]4CCN(C(=O)[C@@H]5CN(c6ccc7c(c6)OCCO7)C(=O)O5)[C@H]4C3)c2n1` (mixture of isomers) [Example 95, (S)-3-(2,3-Dihydro-benzo[1,4]dioxin-6-yl)-5-[(3aR*,6aR*)-5-(6-methoxy-[1,5]naphthyridin-4-yl)-hexahydro-pyrrolo[3,4-b]pyrrole-1-carbonyl]-oxazolidin-2-one] was 0.125 µg/mL; that for `COc1ccc2nccc(N3CC(N(C)C[C@@H]4CN(c5ccc(Br)c(F)c5)C(=O)O4)C3)c2n1` [Example 141, (R)-3-(4-Bromo-3-fluoro-phenyl)-5-({[1-(6-methoxy-[1,5]naphthyridin-4-yl)-azetidin-3-yl]-methyl-amino}-methyl)-oxazolidin-2-one] was at most 0.031 µg/mL.
Same read-out and setting: then `COc1ccc2nccc(N3C[C@@H]4C[C@H]3CN4C[C@@H]3CN(c4ccc5c(c4)NC(=O)CS5)C(=O)O3)c2n1` [Example 152, 6-{(R)-5-[(1S,4S)-5-(6-Methoxy-[1,5]naphthyridin-4-yl)-2,5-diaza-bicyclo[2.2.1]hept-2-ylmethyl]-2-oxo-oxazolidin-3-yl}-4H-benzo[1,4]thiazin-3-one], with 0.063 µg/mL (≈ 0.121 µM).
In turn, `COc1ccc2nccc(N3CC(NCCC4CN(c5ccc6c(c5)NC(=O)CS6)C(=O)O4)C3)c2n1` (racemic) [Example 58, (RS)-6-(5-{2-[1-(6-Methoxy-[1,5]naphthyridin-4-yl)-azetidin-3-ylamino]-ethyl}-2-oxo-oxazolidin-3-yl)-4H-benzo[1,4]thiazin-3-one] showed an MIC of at most 0.031 µg/mL.
On the same count and under the same terms, then `CCc1ccc(N2C[C@@H](CN(C)C3CN(c4ccnc5ccc(OC)nc45)C3)OC2=O)cc1` [Example 137, (R)-3-(4-Ethyl-phenyl)-5-({[1-(6-methoxy-[1,5]naphthyridin-4-yl)-azetidin-3-yl]-methyl-amino}-methyl)-oxazolidin-2-one], with at most 0.031 µg/mL.
Still for that read-out and setting: then `COc1ccc2nccc(N3CCCN(C[C@H]4CN(c5ccc6c(c5)NC(=O)CS6)C(=O)O4)CC3)c2n1` [Example 166, 6-{(S)-5-[4-(6-Methoxy-[1,5]naphthyridin-4-yl)-[1,4]diazepan-1-ylmethyl]-2-oxo-oxazolidin-3-yl}-4H-benzo[1,4]thiazin-3-one], with at most 0.031 µg/mL; and `COc1ccc2nccc(N3CCC(O)(CNC[C@@H]4CN(c5ccc6c(c5)NC(=O)CS6)C(=O)O4)C3)c2n1` (mixture of isomers) [Example 129, 6-[(R)-5-({[(RS)-3-Hydroxy-1-(6-methoxy-[1,5]naphthyridin-4-yl)-pyrrolidin-3-ylmethyl]-amino}-methyl)-2-oxo-oxazolidin-3-yl]-4H-benzo[1,4]thiazin-3-one], with 0.063 µg/mL.
Same read-out and setting: the value for `COc1ccc2nccc(C3(O)CCN(C[C@@H]4CN(c5ccc6c(c5)NC(=O)CO6)C(=O)O4)CC3)c2c1` [Example 132, 6-{(R)-5-[4-Hydroxy-4-(6-methoxy-quinolin-4-yl)-piperidin-1-ylmethyl]-2-oxo-oxazolidin-3-yl}-4H-benzo[1,4]oxazin-3-one] was 0.063 µg/mL (≈ 0.125 µM).
On to `COc1ccc2nccc(N3C[C@H](NC[C@@H]4CN(c5ccc6c(c5)NC(=O)CS6)C(=O)O4)C[C@H]3CO)c2n1` [Example 79, 6-((R)-5-{[(3R,5S)-5-Hydroxymethyl-1-(6-methoxy-[1,5]naphthyridin-4-yl)-pyrrolidin-3-ylamino]-methyl}-2-oxo-oxazolidin-3-yl)-4H-benzo[1,4]thiazin-3-one], for which the MIC was determined as 0.25 µg/mL (≈ 0.466 µM).
On the same count and under the same terms, then `COc1ccc2nccc(N3CCN(C[C@@H]4CN(c5ccc6c(c5)NC(=O)CS6)C(=O)O4)CC3=O)c2n1` [Example 101, 6-{(R)-5-[4-(6-Methoxy-[1,5]naphthyridin-4-yl)-3-oxo-piperazin-1-ylmethyl]-2-oxo-oxazolidin-3-yl}-4H-benzo[1,4]thiazin-3-one], with 0.5 µg/mL (≈ 0.96 µM); and `COc1ccc2nccc(N3CCC(NC[C@@H]4CN(c5ccc(OC(F)F)cc5)C(=O)O4)CC3)c2n1` [Example 185, (R)-3-(4-Difluoromethoxy-phenyl)-5-{[1-(6-methoxy-[1,5]naphthyridin-4-yl)-piperidin-4-ylamino]-methyl}-oxazolidin-2-one], with 0.5 µg/mL (≈ 1 µM).
